Reference: patent US12226409B2, “Treatment of hepatocellular carcinoma” (Eisai R&D Management Co., Ltd., priority 2017, dated 2025)

Legend:
[1] = system: unresectable hepatocellular carcinoma (HCC); test: REFLECT study, efficacy per independent review; assay type: in vivo, human
Method: The efficacy of LENVIMA was evaluated in a randomized, open-label, multicenter, international study (REFLECT; […]) conducted in patients with previously untreated unresectable hepatocellular carcinoma (HCC).

CYP1A2 = target: T1, CYP1A2 (Homo sapiens, UniProt P05177); test: In vitro CYP inhibition; assay type: in vitro ADME
T1 sequence (P05177 1-516): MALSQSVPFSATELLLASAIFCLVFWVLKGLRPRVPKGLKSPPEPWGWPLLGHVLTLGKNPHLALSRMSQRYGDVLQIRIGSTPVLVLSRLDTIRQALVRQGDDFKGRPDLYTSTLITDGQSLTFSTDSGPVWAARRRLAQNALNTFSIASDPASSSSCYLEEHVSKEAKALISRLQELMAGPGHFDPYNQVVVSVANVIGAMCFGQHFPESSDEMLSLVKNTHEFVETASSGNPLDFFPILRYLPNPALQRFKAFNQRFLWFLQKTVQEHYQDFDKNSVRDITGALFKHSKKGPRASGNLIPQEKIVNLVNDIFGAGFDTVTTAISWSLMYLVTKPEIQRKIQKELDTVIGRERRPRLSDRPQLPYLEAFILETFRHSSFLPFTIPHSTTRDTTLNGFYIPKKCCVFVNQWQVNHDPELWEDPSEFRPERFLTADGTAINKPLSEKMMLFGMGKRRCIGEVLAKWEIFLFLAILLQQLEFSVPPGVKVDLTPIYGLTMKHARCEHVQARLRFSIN

CYP3A = test: In vitro CYP induction; assay type: in vitro ADME
CYP2C9 = CYP2C9 (Homo sapiens, UniProt P11712); test: In vitro CYP inhibition; assay type: in vitro ADME
[2] = system: patients with unresectable HCC; settings: human, in vivo
From the text: Randomization was stratified according to region (Asia-Pacific or Western regions), macroscopic portal vein invasion and/or extrahepatic spread (yes or no), Eastern Cooperative Oncology Group performance status (0 or 1), and body weight (<60 kg or ≥60 kg).
Safety assessments included recording of vital signs, hematologic and biochemical laboratory testing, urinalysis, and electrocardiography.

CYP3A4 = target: T2, CYP3A4 (Homo sapiens, UniProt P08684); test: Drug interaction with midazolam (CYP3A4 substrate); settings: projected
T2 construct: from tissue; host or cells: human subjects (in vivo)

[3] = system: patients with unresectable HCC; test: Quality of life, EORTC QLQ-C30 and QLQ-HCC18 questionnaires; assay type: in vivo, human; settings: role functioning, pain, diarrhea (QLQ-C30); nutrition, body image (QLQ-HCC18)
Method: The primary endpoint was overall survival.
Tumors were evaluated in accordance with mRECIST (Lencioni R., Semin Liver Dis., 30(1):52-60, 2010); RECIST 1.1 was applied for nonhepatic lesions (Eisenhauer, Eur J Cancer, 45(2):228-47, 2009). The liver was examined with computed tomography or magnetic resonance imaging was performed using a triphasic scanning technique. Assessments were performed every 8 weeks until disease progression. Quality of life questionnaires were administered at baseline, on day 1 of each subsequent treatment cycle, and at the off-treatment visit.

T2 sequence (P08684 whole entry): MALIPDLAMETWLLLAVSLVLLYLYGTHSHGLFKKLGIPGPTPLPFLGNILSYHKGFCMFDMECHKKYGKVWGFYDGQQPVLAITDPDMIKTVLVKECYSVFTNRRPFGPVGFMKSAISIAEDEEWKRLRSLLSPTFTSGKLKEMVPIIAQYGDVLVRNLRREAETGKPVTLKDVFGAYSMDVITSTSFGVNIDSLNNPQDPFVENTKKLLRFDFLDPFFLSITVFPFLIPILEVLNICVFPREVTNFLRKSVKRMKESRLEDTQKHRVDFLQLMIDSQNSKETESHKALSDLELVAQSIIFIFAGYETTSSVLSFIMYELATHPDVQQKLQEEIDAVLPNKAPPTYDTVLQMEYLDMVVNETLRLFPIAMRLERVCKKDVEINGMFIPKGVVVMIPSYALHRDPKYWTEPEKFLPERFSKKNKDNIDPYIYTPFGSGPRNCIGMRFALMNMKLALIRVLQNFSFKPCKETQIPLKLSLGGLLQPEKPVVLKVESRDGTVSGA
Chain of CYP2C9 (P11712 whole entry): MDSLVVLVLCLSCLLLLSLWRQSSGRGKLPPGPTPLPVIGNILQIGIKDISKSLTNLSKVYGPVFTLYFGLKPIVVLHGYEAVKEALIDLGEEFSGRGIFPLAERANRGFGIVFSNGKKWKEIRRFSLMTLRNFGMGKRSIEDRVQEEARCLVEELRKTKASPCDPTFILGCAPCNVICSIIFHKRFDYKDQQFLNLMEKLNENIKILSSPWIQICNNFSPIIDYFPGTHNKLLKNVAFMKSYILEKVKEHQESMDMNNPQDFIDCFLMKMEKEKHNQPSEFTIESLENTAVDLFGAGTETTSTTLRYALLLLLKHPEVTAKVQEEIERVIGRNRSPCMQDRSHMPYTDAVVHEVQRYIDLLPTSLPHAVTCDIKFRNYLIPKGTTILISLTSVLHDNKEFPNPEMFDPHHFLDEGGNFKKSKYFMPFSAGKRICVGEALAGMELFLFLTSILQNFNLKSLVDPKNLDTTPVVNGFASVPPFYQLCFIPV

## COc1cc2nccc(Oc3ccc(NC(=O)NC4CC4)c(Cl)c3)c2cc1C(N)=O [Lenvatinib, 4-(3-chloro-4(cyclopropylaminocarbonyl)aminophenoxy)-7-methoxy-6-quinolinecarboxamide]
[1]; in vivo
  Median OS: 13.6 months
[1]; mRECIST, independent review
  Median PFS: 7.3 months
  Objective response rate: 41%
CYP1A2
  inhibition of CYP1A2: inhibits
CYP3A
  induction of CYP3A: induces
CYP2C9
  inhibition of CYP2C9: inhibits
[2]
  treatment-related fatal cerebral hemorrhage: 3 patients
  treatment-related fatal hepatic failure: 3 patients
  treatment-related fatal respiratory failure: 2 patients
CYP3A4
  drug-drug interaction risk with midazolam: no projected significant drug-drug interaction risk
[3]
  time to clinically meaningful deterioration of quality of life: clinically meaningful delay in deterioration
